Where “and” joins values, the source holds several entries; their conditions need not be identical. Equal values may be shown once. Toxic doses and inconclusive results are not listed. The calls were made as follows: active = survival T/C of 150% or more; inactive = T/C below 125% in these data. Peptide text beside a SMILES is read from it. * marks the point of attachment. Cbz = O=C(OCc1ccccc1)*; OBn = c1ccc(CO*)cc1
Test system: P388 leukemia ip, CD2F1 mice, survival T/C
Experiment: NCI In Vivo Anticancer Drug Screen. Data for tumor model P388 Leukemia (intraperitoneal) in CD2F1 (CDF1) mice
Conditions: endpoint: median survival time, higher = longer survival
In short: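 Mice carrying the transplanted tumor received test compound or vehicle. Survival was recorded in each group, and the value is the treated-group measurement divided by that of the vehicle-treated control group.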

[1] = dose: 50.0 mg/kg/injection, schedule: Q01DX005 (ip), vehicle: Klucel (hydroxypropylcellulose) (HPC)
[2] = dose: 100.0 mg/kg/injection, schedule: Q01DX005 (ip), vehicle: Klucel (hydroxypropylcellulose) (HPC)
[3] = dose: 200.0 mg/kg/injection, schedule: Q01DX005 (ip), vehicle: Klucel (hydroxypropylcellulose) (HPC)
[4] = dose: 25.0 mg/kg/injection, schedule: Q01DX005 (ip), vehicle: Klucel (hydroxypropylcellulose) (HPC)
[5] = dose: 30.0 mg/kg/injection, schedule: Q01DX005 (ip), vehicle: saline with Tween-80
[6] = dose: 60.0 mg/kg/injection, schedule: Q01DX005 (ip), vehicle: saline with Tween-80
[7] = dose: 120.0 mg/kg/injection, schedule: Q01DX005 (ip), vehicle: saline with Tween-80
[8] = dose: 240.0 mg/kg/injection, schedule: Q01DX005 (ip), vehicle: saline with Tween-80
[9] = dose: 50.0 mg/kg/injection, schedule: Q01DX009 (ip), vehicle: Klucel (hydroxypropylcellulose) (HPC)
[10] = dose: 100.0 mg/kg/injection, schedule: Q01DX009 (ip), vehicle: Klucel (hydroxypropylcellulose) (HPC)
[11] = dose: 200.0 mg/kg/injection, schedule: Q01DX009 (ip), vehicle: Klucel (hydroxypropylcellulose) (HPC)
[12] = dose: 50.0 mg/kg/injection, schedule: Q01DX005 (ip), vehicle: saline with Tween-80
[13] = dose: 100.0 mg/kg/injection, schedule: Q01DX005 (ip), vehicle: saline with Tween-80
[14] = dose: 200.0 mg/kg/injection, schedule: Q01DX005 (ip), vehicle: saline with Tween-80

Measured: T/C

COC(=O)C[C@@]1(C(=O)OC)[C@H](C(=O)OC)[C@@H](C(=O)OC)N(C(C)=O)N1C
inactive: [1] 105 % of control | [2] 105 % of control | dose: 100.0 mg/kg/injection, schedule: Q04DX002 (ip), vehicle: Klucel (hydroxypropylcellulose) (HPC) 104 % of control | [3] 103 % of control | dose: 200.0 mg/kg/injection, schedule: Q04DX002 (ip), vehicle: Klucel (hydroxypropylcellulose) (HPC) 95 % of control | dose: 400.0 mg/kg/injection, schedule: Q04DX002 (ip), vehicle: Klucel (hydroxypropylcellulose) (HPC) 103 % of control

CCCCCCC[N+]1([O-])CCOCC1
inactive: dose: 50.0 mg/kg/injection, schedule: Q01DX009 (ip), vehicle: saline 99 % of control | dose: 100.0 mg/kg/injection, schedule: Q01DX009 (ip), vehicle: saline 100 % of control | dose: 200.0 mg/kg/injection, schedule: Q01DX009 (ip), vehicle: saline 97 % of control

CC1=CC(O)(CC(N)=O)C=C(C)C1=O
inactive: dose: 3.13 mg/kg/injection, schedule: Q01DX009 (ip), vehicle: distilled water + Tween-80 100 % of control | dose: 6.25 mg/kg/injection, schedule: Q01DX009 (ip), vehicle: distilled water + Tween-80 100 % of control | dose: 12.5 mg/kg/injection, schedule: Q01DX009 (ip), vehicle: distilled water + Tween-80 99 % of control | dose: 25.0 mg/kg/injection, schedule: Q01DX009 (ip), vehicle: distilled water + Tween-80 100 % of control | dose: 50.0 mg/kg/injection, schedule: Q01DX009 (ip), vehicle: distilled water + Tween-80 100 % of control | dose: 100.0 mg/kg/injection, schedule: Q01DX009 (ip), vehicle: distilled water + Tween-80 108 % of control | dose: 200.0 mg/kg/injection, schedule: Q01DX009 (ip), vehicle: distilled water + Tween-80 108 % of control | dose: 400.0 mg/kg/injection, schedule: Q01DX009 (ip), vehicle: distilled water + Tween-80 108 % of control

CC(C)c1c(O)c(O)c2c(c1O)C(=O)C(O)=C1C(C)(C)CCC[C@@]12C
inactive: dose: 12.5 mg/kg/injection, schedule: Q01DX005 (ip), vehicle: Klucel (hydroxypropylcellulose) (HPC) 98 % of control | [4] 94 % of control | [1] 102 % of control | [2] 100 % of control | [3] 109 % of control

CCOC(=O)C1=C(C(=O)c2ccc(OC)cc2)C(c2cccc([N+](=O)[O-])c2)C(C(=O)c2ccc(OC)cc2)=C(C(=O)OCC)N1
inactive: [5] 93 % of control | [6] 90 % of control and 96 % of control | [7] 94 % of control | [8] 90 % of control

COC(=O)C(Cc1ccccc1)NC(=O)C(Cc1c[nH]c2ccccc12)NC(=O)OC(C)(C)C (stereo not drawn)
inactive: [9] 95 % of control | [10] 87 % of control | [11] 108 % of control

Cc1ccc(-c2c([N+](=O)[O-])c3ccccn3c2[N+](=O)[O-])cc1
inactive: [6] 92 % of control | [7] 90 % of control | [8] 99 % of control

Cc1ccc2c(c1)Nc1c(ccc3ccccc13)S2
inactive: [12] 105 % of control | [13] 105 % of control | [14] 103 % of control

C=CC[N+](CCO)(CCO)CCCCCCCCCCCCCCCCCC
inactive: dose: 6.25 mg/kg/injection, schedule: Q01DX009 (ip), vehicle: saline with Tween-80 114 % of control | dose: 12.5 mg/kg/injection, schedule: Q01DX009 (ip), vehicle: saline with Tween-80 108 % of control

O=C1C(Cl)=C(NCC2CCCN3CCCCC23)C(=O)c2ccccc21 (stereo not drawn)
inactive: dose: 50.0 mg/kg/injection, schedule: Q01DX005 (ip), vehicle: saline 113 % of control | dose: 100.0 mg/kg/injection, schedule: Q01DX005 (ip), vehicle: saline 117 % of control

O=C(CC(O)(C(F)(F)F)C(F)(F)F)c1cccs1
inactive: dose: 50.0 mg/kg/injection, schedule: Q04DX003 (ip), vehicle: saline with Tween-80 116 % of control | dose: 100.0 mg/kg/injection, schedule: Q04DX003 (ip), vehicle: saline with Tween-80 100 % of control

CCOC(=O)c1ccc(NC(=O)Nc2cccc(O)c2)cc1
inactive: dose: 60.0 mg/kg/injection, schedule: Q01DX005 (ip), vehicle: Klucel (hydroxypropylcellulose) (HPC) 107 % of control | dose: 120.0 mg/kg/injection, schedule: Q01DX005 (ip), vehicle: Klucel (hydroxypropylcellulose) (HPC) 104 % of control | dose: 240.0 mg/kg/injection, schedule: Q01DX005 (ip), vehicle: Klucel (hydroxypropylcellulose) (HPC) 91 % of control

COc1ccc(/C=N\N=C(/[O-])c2ccc(Cl)cc2)cc1.COc1ccc(/C=N\N=C(/[O-])c2ccc(Cl)cc2)cc1.[Co+2].[OH3+].[OH3+]
inactive: dose: 100.0 mg/kg/injection, schedule: Q04DX002 (ip), vehicle: saline with Tween-80 93 % of control | dose: 200.0 mg/kg/injection, schedule: Q04DX002 (ip), vehicle: saline with Tween-80 102 % of control | dose: 400.0 mg/kg/injection, schedule: Q04DX002 (ip), vehicle: saline with Tween-80 103 % of control

O[C@H]1CCC[C@H]1NCc1ccnc2cc(Cl)ccc12
inactive: [12] 100 % of control | [13] 89 % of control | [14] 91 % of control

C=C(C)C1CC=C(CCCC(C)COC2OCC(OC(=O)/C(C)=C/CCC3=CCC(C(=C)C)CC3O)C(O)C2O)CC1 (stereo not drawn)
inactive: dose: 10.75 mg/kg/injection, schedule: Q01DX005 (ip), vehicle: Klucel (hydroxypropylcellulose) (HPC) 103 % of control | dose: 21.5 mg/kg/injection, schedule: Q01DX005 (ip), vehicle: Klucel (hydroxypropylcellulose) (HPC) 114 % of control | dose: 43.0 mg/kg/injection, schedule: Q01DX005 (ip), vehicle: Klucel (hydroxypropylcellulose) (HPC) 119 % of control

CCOC(=O)c1cc(/C=C/c2cccc(Cl)c2)on1
inactive: dose: 15.0 mg/kg/injection, schedule: Q01DX005 (ip), vehicle: saline with Tween-80 93 % of control | [5] 100 % of control and 90 % of control | [6] 90 % of control | [7] 93 % of control | [8] 95 % of control

CC(C)C(NC(=O)C(CCCCNC(=O)OCc1ccccc1)NC(=O)OCc1ccccc1)C(=O)OCc1ccccc1 (stereo not drawn) (Cbz-Lys(Cbz)-Val-OBn; configuration not given here)
inactive: [12] 89 % of control | [13] 91 % of control | [14] 103 % of control

CCCCCCCCNC1c2ccccc2CCC1O (stereo not drawn)
inactive: [4] 97 % of control | [1] 94 % of control | [2] 97 % of control

CCn1nnnc1Nc1ccccc1
inactive: [9] 120 % of control | [10] 123 % of control | [11] 113 % of control

CCCCCCCCCCCCCCCCc1c(C)nc(N(C)C)oc1=O
inactive: [6] 103 % of control | [7] 97 % of control | [8] 98 % of control and 100 % of control

Nc1ncnc2c1c(-c1ccccc1)cn2-c1ccc(Cl)cc1
inactive: [6] 104 % of control | [7] 99 % of control | [8] 88 % of control

CCN(CC)Cc1ccc2ccccc2c1O
inactive: dose: 50.0 mg/kg/injection, schedule: Q01DX009 (ip), vehicle: saline with Tween-80 103 % of control | dose: 100.0 mg/kg/injection, schedule: Q01DX009 (ip), vehicle: saline with Tween-80 89 % of control | dose: 200.0 mg/kg/injection, schedule: Q01DX009 (ip), vehicle: saline with Tween-80 92 % of control

O=CC1N=C1c1ccccc1 (stereo not drawn)
inactive: dose: 100.0 mg/kg/injection, schedule: Q01DX001 (ip), vehicle: Klucel (hydroxypropylcellulose) (HPC) 88 % of control | dose: 200.0 mg/kg/injection, schedule: Q01DX001 (ip), vehicle: Klucel (hydroxypropylcellulose) (HPC) 90 % of control

COc1cc(/C=N/NC(=O)C(N)Cc2ccc(O)cc2)ccc1O (stereo not drawn)
inactive: [12] 100 % of control | [13] 94 % of control | [14] 103 % of control

CS/C(=C1/C(=O)N(c2ccccc2)N=C1c1ccc(C)cc1)N1CC1
inactive: dose: 100.0 mg/kg/injection, schedule: Q04DX003 (ip), vehicle: Klucel (hydroxypropylcellulose) (HPC) 91 % of control | dose: 200.0 mg/kg/injection, schedule: Q04DX003 (ip), vehicle: Klucel (hydroxypropylcellulose) (HPC) 94 % of control | dose: 400.0 mg/kg/injection, schedule: Q04DX003 (ip), vehicle: Klucel (hydroxypropylcellulose) (HPC) 94 % of control

O=[N+]([O-])c1ccc2[nH]c3cnccc3c2c1
inactive: dose: 12.5 mg/kg/injection, schedule: Q01DX009 (ip), vehicle: other 106 % of control | dose: 25.0 mg/kg/injection, schedule: Q01DX009 (ip), vehicle: other 105 % of control | dose: 50.0 mg/kg/injection, schedule: Q01DX009 (ip), vehicle: other 108 % of control | dose: 100.0 mg/kg/injection, schedule: Q01DX009 (ip), vehicle: other 107 % of control

Reference: PubChem BioAssay AID330 (DTP/NCI, 2004)
